pIC50: −log10 of the molar value.
Legend:
[1] = tested on: human multiple myeloma cell line, OPM-2; assay: Cell viability assay (OPM-2 10 FBS), CellTiter-Glo; assay type: cell-based; conditions: Homo sapiens, OPM-2, 16 h, read-out: OPM-2 10% FBS IC50 IP, OPM-2 cells, 10% FBS, 16 h incubation
Procedure, shortened: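 Cells were seeded at 3000 cells/well in RPMI 1640 with 10% FBS and exposed to serially diluted compounds for 16 h at 37 °C, 5% CO2.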

[2] = biological target: recombinant human Mcl-1 (residues 171-327) / Bim interaction (Homo sapiens (Human), UniProt Q07820); assay: biochemical; assay type: binding; conditions: 0.1 nM Mcl-1(171-327), 0.05 nM biotin-Bim (51-76); read-out: Mcl-1 HTRF IC50
Chain of recombinant human Mcl-1 (residues 171-327) / Bim interaction (Q07820 171-327): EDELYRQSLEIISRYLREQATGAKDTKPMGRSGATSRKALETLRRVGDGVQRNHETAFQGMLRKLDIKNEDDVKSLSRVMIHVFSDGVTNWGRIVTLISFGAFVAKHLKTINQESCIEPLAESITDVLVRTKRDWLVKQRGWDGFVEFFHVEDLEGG

| SMILES | pIC50 [1] | pIC50 [2] |
| --- | --- | --- |
| CO[C@@]1(CN2CCN(CC3OCCO3)CC2)/C=C/C[C@H](C)[C@@H](C)S(=O)(=O)NC(=O)c2ccc3c(c2)N(C[C@@H]2CC[C@H]21)C[C@@]1(CCCc2cc(Cl)ccc21)CO3 [Example 309, (1S,3′R,6′R,7′S,8′E,11′S,12′R)-6-chloro-7′-((4-(1,3-dioxolan-2-ylmethyl)-1-piperazinyl)methyl)-7′-methoxy-11′,12′-dimethyl-3,4-dihydro-2H,15′H-spiro[naphthalene-1,22′-[20]oxa[13]thia[1,14]diazatetracyclo [14.7.2.0~3,6~.0~19,24~]pentacosa[8,16,18,24]tetraen]-15′-one 13′,13′-dioxide] | 7.19 | 9.67 |
| CO[C@@]1(CN2CCN(CC3COC3)CC2)/C=C/C[C@H](C)[C@@H](C)S(=O)(=O)NC(=O)c2ccc3c(c2)N(C[C@@H]2CC[C@H]21)C[C@@]1(CCCc2cc(Cl)ccc21)CO3 [Example 313, (1S,3′R,6′R,7′S,8′E,11′S,12′R)-6-chloro-7′-methoxy-11′,12′-dimethyl-7′-((4-(3-oxetanylmethyl)-1-piperazinyl)methyl)-3,4-dihydro-2H,15′H-spiro[naphthalene-1,22′-[20]oxa[13]thia[1,14]diazatetracyclo [14.7.2.0~3,6~.0~19,24~]pentacosa[8,16,18,24]tetraen]-15′-one 13′,13′-dioxide] | 6.88 | 9.65 |
| CO[C@]1(CN2C[C@H]3C[C@@H]2CN3C(C)C)/C=C/C[C@H](C)[C@@H](C)S(=O)(=O)NC(=O)c2ccc3c(c2)N(C[C@@H]2CC[C@H]21)C[C@@]1(CCCc2cc(Cl)ccc21)CO3 [Example 314, (1S,3′R,6′R,7′R,8′E,11′S,12′R)-6-chloro-7′-methoxy-11′,12′-dimethyl-7′-(((1R,4R)-5-(1-methylethyl)-2,5-diazabicyclo[2.2.1]hept-2-yl)methyl)-3,4-dihydro-2H,15′H-spiro[naphthalene-1,22′-[20]oxa[13]thia[1,14]diazatetracyclo [14.7.2.0~3,6~.0~19,24~]pentacosa[8,16,18,24]tetraen]-15′-one 13′,13′-dioxide] | 6.90 | 9.93 |
| CO[C@]1(CN2C[C@@H]3C[C@H]2CN3C(C)C)/C=C/C[C@H](C)[C@@H](C)S(=O)(=O)NC(=O)c2ccc3c(c2)N(C[C@@H]2CC[C@H]21)C[C@@]1(CCCc2cc(Cl)ccc21)CO3 [Example 315, (1S,3′R,6′R,7′R,8′E,11′S,12′R)-6-chloro-7′-methoxy-11′,12′-dimethyl-7′-(((1S,4S)-5-(1-methylethyl)-2,5-diazabicyclo[2.2.1]hept-2-yl)methyl)-3,4-dihydro-2H,15′H-spiro[naphthalene-1,22′-[20]oxa[13]thia[1,14]diazatetracyclo [14.7.2.0~3,6~.0~19,24~]pentacosa[8,16,18,24]tetraen]-15′-one 13′,13′-dioxide] | 6.91 | 9.91 |
| CO[C@@]1(CN2CCN(Cc3noc(C)n3)CC2)/C=C/C[C@H](C)[C@@H](C)S(=O)(=O)NC(=O)c2ccc3c(c2)N(C[C@@H]2CC[C@H]21)C[C@@]1(CCCc2cc(Cl)ccc21)CO3 [Example 316, (1S,3′R,6′R,7′S,8′E,11′S,12′R)-6-chloro-7′-methoxy-11′,12′-dimethyl-7′-((4-((5-methyl-1,2,4-oxadiazol-3-yl)methyl)-1-piperazinyl)methyl)-3,4-dihydro-2H,15′H-spiro[naphthalene-1,22′-[20]oxa[13]thia[1,14]diazatetracyclo [14.7.2.0~3,6~.0~19,24~]pentacosa[8,16,18,24]tetraen]-15′-one 13′,13′-dioxide] | 7.33 | 9.78 |
| CO[C@@]1(CN2CCN(Cc3nc(C)no3)CC2)/C=C/C[C@H](C)[C@@H](C)S(=O)(=O)NC(=O)c2ccc3c(c2)N(C[C@@H]2CC[C@H]21)C[C@@]1(CCCc2cc(Cl)ccc21)CO3 [Example 317, (1S,3′R,6′R,7′S,8′E,11′S,12′R)-6-chloro-7′-methoxy-11′,12′-dimethyl-7′-((4-((3-methyl-1,2,4-oxadiazol-5-yl)methyl)-1-piperazinyl)methyl)-3,4-dihydro-2H,15′H-spiro[naphthalene-1,22′-[20]oxa[13]thia[1,14]diazatetracyclo [14.7.2.0~3,6~.0~19,24~]pentacosa[8,16,18,24]tetraen]-15′-one 13′,13′-dioxide] | 7.06 | 9.73 |
| CO[C@@]1(CN2CCN(CCC#N)CC2)/C=C/C[C@H](C)[C@@H](C)S(=O)(=O)NC(=O)c2ccc3c(c2)N(C[C@@H]2CC[C@H]21)C[C@@]1(CCCc2cc(Cl)ccc21)CO3 [Example 318, 3-(4-(((1S,3′R,6′R,7′S,8′E,11′S, 12′R)-6-chloro-7′-methoxy-11′,12′-dimethyl-13′,13′-dioxido-15′-oxo-3,4-dihydro-2H-spiro[naphthalene-1,22′-[20]oxa[13]thia[1,14]diazatetracyclo [14.7.2.0~3,6~.0~19,24~]pentacosa[8,16,18,24]tetraen]-7′-yl)methyl)-1-piperazinyl)propanenitrile] | 7.11 | 9.86 |
| CO[C@]1(CN2CC3(C2)CN(C(C)C)C3)/C=C/C[C@H](C)[C@@H](C)S(=O)(=O)NC(=O)c2ccc3c(c2)N(C[C@@H]2CC[C@H]21)C[C@@]1(CCCc2cc(Cl)ccc21)CO3 [Example 320, (1S,3′R,6′R,7′R,8′E,11′S,12′R)-6-chloro-7′-methoxy-11′,12′-dimethyl-7′-((6-(1-methylethyl)-2,6-diazaspiro[3.3]hept-2-yl)methyl)-3,4-dihydro-2H,15′H-spiro[naphthalene-1,22′-[20]oxa[13]thia[1,14]diazatetracyclo [14.7.2.0~3,6~.0~19,24~]pentacosa[8,16,18,24]tetraen]-15′-one 13′,13′-dioxide] | 6.52 | 9.28 |
| CO[C@@]1(CN2CCN(Cc3ncon3)CC2)/C=C/C[C@H](C)[C@@H](C)S(=O)(=O)NC(=O)c2ccc3c(c2)N(C[C@@H]2CC[C@H]21)C[C@@]1(CCCc2cc(Cl)ccc21)CO3 [Example 321, (1S,3′R,6′R,7′S,8′E,11′S,12′R)-6-chloro-7′-methoxy-11′,12′-climethyl-7′-((4-(1,2,4-oxadiazol-3-ylmethyl)-1-piperazinyl)methyl)-3,4-dihydro-2H,15′H-spiro[naphthalene-1,22′-[20]oxa[13]thia[1,14]diazatetracyclo [14.7.2.0~3,6~.0~19,24~]pentacosa[8,16,18,24]tetraen]-15′-one 13′,13′-dioxide] | 7.04 | 9.84 |
| CO[C@@]1(CN2CCN(Cc3nc(C)c(C)o3)CC2)/C=C/C[C@H](C)[C@@H](C)S(=O)(=O)NC(=O)c2ccc3c(c2)N(C[C@@H]2CC[C@H]21)C[C@@]1(CCCc2cc(Cl)ccc21)CO3 [Example 322, (1S,3′R,6′R,7′S,8′E,11′S,12′R)-6-chloro-7′-((4-((4,5-dimethyl-1,3-oxazol-2-yl)methyl)-1-piperazinyl)methyl)-7′-methoxy-11′,12′-dimethyl-3,4-dihydro-2H,15′H-spiro[naphthalene-1,22′-[20]oxa[13]thia[1,14]diazatetracyclo [14.7.2.0~3,6~.0~19,24~]pentacosa[8,16,18,24]tetraen]-15′-one 13′,13′-dioxide] | 7.06 | 9.84 |
| CO[C@]1(CN2CCN(C(C)C)C(=O)C2)/C=C/C[C@H](C)[C@@H](C)S(=O)(=O)NC(=O)c2ccc3c(c2)N(C[C@@H]2CC[C@H]21)C[C@@]1(CCCc2cc(Cl)ccc21)CO3 [Example 323, (1S,3′R,6′R,7′R,8′E,11′S,12′R)-6-chloro-7′-methoxy-11′,12′-dimethyl-7′-((4-(1-methylethyl)-3-oxo-1-piperazinyl)methyl)-3,4-dihydro-2H,15′H-spiro[naphthalene-1,22′-[20]oxa[13]thia[1,14]diazatetracyclo [14.7.2.0~3,6~.0~19,24~]pentacosa[8,16,18,24]tetraen]-15′-one 13′,13′-dioxide] | 6.77 | 9.78 |
| COCCN1[C@H](C)CN(C[C@]2(OC)/C=C/C[C@H](C)[C@@H](C)S(=O)(=O)NC(=O)c3ccc4c(c3)N(C[C@@H]3CC[C@H]32)C[C@@]2(CCCc3cc(Cl)ccc32)CO4)C[C@@H]1C [Example 324, (1S,3′R,6′R,7′S,8′E,11′S,12′R)-6-chloro-7′-methoxy-7′-(((3R,5S)-4-(2-methoxyethyl)-3,5-dimethyl-1-piperazinyl)methyl)-11′,12′-dimethyl-3,4-dihydro-2H,15′H-spiro[naphthalene-1,22′-[20]oxa[13]thia[1,14]diazatetracyclo [14.7.2.0~3,6~.0~19,24~]pentacosa[8,16,18,24]tetraen]-15′-one 13′,13′-dioxide] | 7.24 | 9.87 |
| CO[C@]1(CN2CCCN(C(C)C)CC2)/C=C/C[C@H](C)[C@@H](C)S(=O)(=O)NC(=O)c2ccc3c(c2)N(C[C@@H]2CC[C@H]21)C[C@@]1(CCCc2cc(Cl)ccc21)CO3 [Example 327, (1S,3′R,6′R,7′R,8′E,11′S,12′R)-6-chloro-7′-methoxy-11′,12′-dimethyl-7′-((4-(1-methylethyl)-1,4-diazepan-1-yl)methyl)-3,4-dihydro-2H,15′H-spiro[naphthalene-1,22′-[20]oxa[13]thia[1,14]diazatetracyclo [14.7.2.0~3,6~.0~19,24~]pentacosa[8,16,18,24]tetraen]-15′-one 13′,13′-dioxide] | 6.76 | 9.67 |
| CO[C@]1(CN2C[C@@H](C)N(C(C)C)[C@@H](C)C2)/C=C/C[C@H](C)[C@@H](C)S(=O)(=O)NC(=O)c2ccc3c(c2)N(C[C@@H]2CC[C@H]21)C[C@@]1(CCCc2cc(Cl)ccc21)CO3 [Example 328, (1S,3′R,6′R,7′R,8′E,11′S,12′R)-6-chloro-7′-(((3R,5S)-3,5-dimethyl-4-(1-methylethyl)-1-piperazinyl)methyl)-7′-methoxy-11′,12′-dimethyl-3,4-dihydro-2H,15′H-spiro[naphthalene-1,22′-[20]oxa[13]thia[1,14]diazatetracyclo [14.7.2.0~3,6~.0~19,24~]pentacosa[8,16,18,24]tetraen]-15′-one 13′,13′-dioxide] | 7.32 | 10.06 |
